# Assays:
# [1] = biological target: T1, Serine/threonine-protein kinase D3 (Homo sapiens) (UniProt O94806); assay: Inhibition of PRKD3 (unknown origin) assessed as remaining activity at 1 uM by Kinome scan method relative to control
# T1 sequence (whole entry): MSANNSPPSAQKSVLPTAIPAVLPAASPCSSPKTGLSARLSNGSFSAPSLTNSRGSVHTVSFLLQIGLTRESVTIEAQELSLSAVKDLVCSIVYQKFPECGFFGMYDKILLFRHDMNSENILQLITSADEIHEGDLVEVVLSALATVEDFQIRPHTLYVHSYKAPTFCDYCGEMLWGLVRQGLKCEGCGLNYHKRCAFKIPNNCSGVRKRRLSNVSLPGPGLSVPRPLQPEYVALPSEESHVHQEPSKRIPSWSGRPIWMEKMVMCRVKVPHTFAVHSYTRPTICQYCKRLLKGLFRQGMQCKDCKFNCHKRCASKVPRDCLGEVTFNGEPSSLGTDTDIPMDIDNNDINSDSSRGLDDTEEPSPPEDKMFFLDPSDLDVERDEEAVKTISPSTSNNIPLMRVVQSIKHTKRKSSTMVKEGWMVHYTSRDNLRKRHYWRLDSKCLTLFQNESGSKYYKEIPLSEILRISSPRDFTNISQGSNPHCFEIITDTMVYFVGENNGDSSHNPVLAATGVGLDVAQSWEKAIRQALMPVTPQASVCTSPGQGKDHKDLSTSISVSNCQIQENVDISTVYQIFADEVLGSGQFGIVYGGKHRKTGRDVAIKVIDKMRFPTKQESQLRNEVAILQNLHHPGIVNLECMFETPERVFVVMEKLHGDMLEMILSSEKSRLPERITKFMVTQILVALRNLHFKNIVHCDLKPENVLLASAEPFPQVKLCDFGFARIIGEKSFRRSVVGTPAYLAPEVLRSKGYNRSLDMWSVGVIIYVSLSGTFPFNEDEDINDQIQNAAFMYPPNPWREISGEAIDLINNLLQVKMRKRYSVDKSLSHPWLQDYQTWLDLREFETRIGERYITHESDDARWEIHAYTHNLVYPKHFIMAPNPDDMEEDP
# [2] = biological target: STE20/SPS1-related proline-alanine-rich protein kinase (Homo sapiens) (UniProt Q9UEW8); assay: Inhibition of STK39 (unknown origin) assessed as remaining activity at 1 uM by Kinome scan method relative to control
# [3] = biological target: Serine/threonine-protein kinase 26 (Homo sapiens) (UniProt Q9P289); assay: Inhibition of MST4 (unknown origin) assessed as remaining activity at 1 uM by Kinome scan method relative to control
# Chain of Serine/threonine-protein kinase 26 (Homo sapiens) (Q9P289 2-416 limits assumed): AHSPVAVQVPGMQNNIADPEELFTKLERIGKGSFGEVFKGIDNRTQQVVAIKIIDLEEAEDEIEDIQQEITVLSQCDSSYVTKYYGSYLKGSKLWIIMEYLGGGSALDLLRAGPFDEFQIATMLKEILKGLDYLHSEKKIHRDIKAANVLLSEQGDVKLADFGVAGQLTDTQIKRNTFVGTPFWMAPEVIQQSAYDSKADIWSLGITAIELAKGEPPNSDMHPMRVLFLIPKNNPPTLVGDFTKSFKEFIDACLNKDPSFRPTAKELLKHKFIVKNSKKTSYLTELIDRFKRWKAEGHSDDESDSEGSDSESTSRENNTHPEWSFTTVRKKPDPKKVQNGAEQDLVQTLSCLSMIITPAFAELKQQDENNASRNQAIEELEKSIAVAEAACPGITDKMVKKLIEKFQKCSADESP
# [4] = biological target: Mitogen-activated protein kinase 14 (Homo sapiens) (UniProt Q16539); assay: Inhibition of non-phosphorylated human N-terminal His-P38alpha overexpressed in Escherichia coli BL21 (DE3) assessed as remaining activity at 1 uM by Kinome scan method relative to control
# Chain of Mitogen-activated protein kinase 14 (Homo sapiens) (Q16539 whole entry): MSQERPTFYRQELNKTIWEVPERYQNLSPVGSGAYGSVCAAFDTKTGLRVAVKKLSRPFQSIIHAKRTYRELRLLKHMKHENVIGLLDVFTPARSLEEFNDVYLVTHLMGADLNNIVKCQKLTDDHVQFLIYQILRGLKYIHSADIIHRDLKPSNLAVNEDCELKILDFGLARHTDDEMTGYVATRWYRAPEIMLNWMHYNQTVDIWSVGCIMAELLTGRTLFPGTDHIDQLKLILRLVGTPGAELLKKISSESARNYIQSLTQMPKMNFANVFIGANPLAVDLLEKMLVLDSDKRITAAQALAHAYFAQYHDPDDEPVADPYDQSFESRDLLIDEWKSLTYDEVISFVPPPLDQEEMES
# [5] = biological target: T2, Aurora kinase C (Homo sapiens) (UniProt Q9UQB9); assay: Inhibition of AURKC (unknown origin) assessed as remaining activity at 1 uM by Kinome scan method relative to control
# T2 sequence (whole entry): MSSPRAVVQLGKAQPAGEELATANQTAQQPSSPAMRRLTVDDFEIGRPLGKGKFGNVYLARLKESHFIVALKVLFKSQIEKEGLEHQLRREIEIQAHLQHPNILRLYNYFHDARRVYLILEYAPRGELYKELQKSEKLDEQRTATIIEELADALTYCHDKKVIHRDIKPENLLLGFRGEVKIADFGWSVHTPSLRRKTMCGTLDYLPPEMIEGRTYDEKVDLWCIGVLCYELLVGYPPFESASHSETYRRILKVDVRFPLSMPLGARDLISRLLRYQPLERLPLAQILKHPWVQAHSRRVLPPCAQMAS
# [6] = biological target: Serine/threonine-protein kinase LATS1 (Homo sapiens) (UniProt O95835); assay: Inhibition of LATS1 (unknown origin) assessed as remaining activity at 1 uM by Kinome scan method relative to control
# Chain of Serine/threonine-protein kinase LATS1 (Homo sapiens) (O95835 whole entry): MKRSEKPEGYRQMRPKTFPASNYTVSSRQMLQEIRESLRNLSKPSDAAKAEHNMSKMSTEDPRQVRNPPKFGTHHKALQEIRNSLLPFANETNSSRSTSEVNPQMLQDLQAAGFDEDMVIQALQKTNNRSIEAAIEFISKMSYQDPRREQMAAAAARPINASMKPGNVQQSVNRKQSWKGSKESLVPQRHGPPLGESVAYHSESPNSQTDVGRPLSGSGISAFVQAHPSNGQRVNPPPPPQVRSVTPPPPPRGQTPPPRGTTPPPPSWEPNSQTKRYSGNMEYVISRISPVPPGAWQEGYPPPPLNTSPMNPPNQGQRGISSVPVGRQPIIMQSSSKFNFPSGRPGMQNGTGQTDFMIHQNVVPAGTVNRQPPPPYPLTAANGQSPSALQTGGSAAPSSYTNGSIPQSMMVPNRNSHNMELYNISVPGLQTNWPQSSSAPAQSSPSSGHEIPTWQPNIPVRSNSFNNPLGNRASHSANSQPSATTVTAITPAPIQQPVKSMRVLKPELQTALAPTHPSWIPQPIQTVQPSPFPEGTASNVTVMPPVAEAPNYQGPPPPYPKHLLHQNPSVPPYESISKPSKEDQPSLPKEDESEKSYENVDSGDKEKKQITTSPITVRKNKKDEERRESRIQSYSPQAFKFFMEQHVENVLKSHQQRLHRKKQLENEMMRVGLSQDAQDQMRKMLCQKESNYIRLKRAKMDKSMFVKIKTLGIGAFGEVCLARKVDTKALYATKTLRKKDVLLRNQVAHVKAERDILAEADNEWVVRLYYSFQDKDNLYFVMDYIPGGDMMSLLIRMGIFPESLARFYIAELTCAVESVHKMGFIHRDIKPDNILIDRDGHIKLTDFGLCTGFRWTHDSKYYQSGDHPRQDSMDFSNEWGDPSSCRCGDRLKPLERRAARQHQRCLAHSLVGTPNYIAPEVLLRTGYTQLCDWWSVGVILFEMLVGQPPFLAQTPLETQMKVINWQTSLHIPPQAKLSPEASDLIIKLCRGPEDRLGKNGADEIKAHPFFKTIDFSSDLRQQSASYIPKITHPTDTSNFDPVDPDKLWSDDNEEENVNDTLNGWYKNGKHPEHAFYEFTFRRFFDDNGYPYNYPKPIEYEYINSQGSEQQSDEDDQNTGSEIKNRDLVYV
# [7] = biological target: Serine/threonine-protein kinase 35 (Homo sapiens) (UniProt Q8TDR2); assay: Inhibition of STK35 (unknown origin) assessed as remaining activity at 1 uM by Kinome scan method relative to control
# Chain of Serine/threonine-protein kinase 35 (Homo sapiens) (Q8TDR2 whole entry): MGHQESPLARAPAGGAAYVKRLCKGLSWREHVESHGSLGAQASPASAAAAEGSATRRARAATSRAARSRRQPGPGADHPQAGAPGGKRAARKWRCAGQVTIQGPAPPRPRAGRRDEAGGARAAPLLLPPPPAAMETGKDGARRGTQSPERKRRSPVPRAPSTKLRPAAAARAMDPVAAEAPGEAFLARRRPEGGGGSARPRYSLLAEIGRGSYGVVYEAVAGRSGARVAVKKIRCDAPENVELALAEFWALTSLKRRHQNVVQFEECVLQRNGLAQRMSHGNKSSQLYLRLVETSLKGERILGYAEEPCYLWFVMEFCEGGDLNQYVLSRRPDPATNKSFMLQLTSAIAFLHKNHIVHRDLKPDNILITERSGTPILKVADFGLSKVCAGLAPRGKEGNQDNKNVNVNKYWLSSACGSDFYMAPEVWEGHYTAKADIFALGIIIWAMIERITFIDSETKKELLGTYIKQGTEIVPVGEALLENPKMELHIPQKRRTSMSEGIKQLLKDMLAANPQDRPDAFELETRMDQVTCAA
# [8] = biological target: Serine/threonine-protein kinase 33 (Homo sapiens) (UniProt Q9BYT3); assay: Inhibition of STK33 (unknown origin) assessed as remaining activity at 1 uM by Kinome scan method relative to control
# Chain of Serine/threonine-protein kinase 33 (Homo sapiens) (Q9BYT3 whole entry, looked up): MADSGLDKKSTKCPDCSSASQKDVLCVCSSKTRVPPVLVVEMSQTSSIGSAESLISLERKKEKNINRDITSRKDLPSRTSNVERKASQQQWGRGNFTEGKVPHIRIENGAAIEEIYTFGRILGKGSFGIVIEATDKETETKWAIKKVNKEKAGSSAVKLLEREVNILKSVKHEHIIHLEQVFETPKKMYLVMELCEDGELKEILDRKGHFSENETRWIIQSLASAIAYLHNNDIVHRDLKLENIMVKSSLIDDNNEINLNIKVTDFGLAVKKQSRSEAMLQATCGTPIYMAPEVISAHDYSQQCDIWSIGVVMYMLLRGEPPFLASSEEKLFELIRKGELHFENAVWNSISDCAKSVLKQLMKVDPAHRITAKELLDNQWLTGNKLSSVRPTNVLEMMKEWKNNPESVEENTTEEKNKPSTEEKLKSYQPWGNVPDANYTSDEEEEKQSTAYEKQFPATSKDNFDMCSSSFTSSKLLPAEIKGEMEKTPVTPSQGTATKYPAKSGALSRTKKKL
# [9] = biological target: Cyclin-dependent kinase 3 (Homo sapiens) (UniProt Q00526); assay: Inhibition of CDK3 (unknown origin) assessed as remaining activity at 1 uM by Kinome scan method relative to control
# Chain of Cyclin-dependent kinase 3 (Homo sapiens) (Q00526 whole entry, looked up): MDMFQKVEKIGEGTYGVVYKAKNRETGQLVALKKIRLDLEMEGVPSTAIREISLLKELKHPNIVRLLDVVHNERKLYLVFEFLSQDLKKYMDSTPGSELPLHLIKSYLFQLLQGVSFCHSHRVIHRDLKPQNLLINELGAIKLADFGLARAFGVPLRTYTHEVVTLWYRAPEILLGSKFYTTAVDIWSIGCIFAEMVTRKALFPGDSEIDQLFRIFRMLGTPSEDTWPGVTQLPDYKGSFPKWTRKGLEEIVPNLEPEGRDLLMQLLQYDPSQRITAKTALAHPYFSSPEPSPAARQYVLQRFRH
# [10] = biological target: T3, Serine/threonine-protein kinase D1 (Homo sapiens) (UniProt Q15139); assay: Inhibition of PRKD1 (unknown origin) assessed as remaining activity at 1 uM by Kinome scan method relative to control
# T3 sequence (whole entry): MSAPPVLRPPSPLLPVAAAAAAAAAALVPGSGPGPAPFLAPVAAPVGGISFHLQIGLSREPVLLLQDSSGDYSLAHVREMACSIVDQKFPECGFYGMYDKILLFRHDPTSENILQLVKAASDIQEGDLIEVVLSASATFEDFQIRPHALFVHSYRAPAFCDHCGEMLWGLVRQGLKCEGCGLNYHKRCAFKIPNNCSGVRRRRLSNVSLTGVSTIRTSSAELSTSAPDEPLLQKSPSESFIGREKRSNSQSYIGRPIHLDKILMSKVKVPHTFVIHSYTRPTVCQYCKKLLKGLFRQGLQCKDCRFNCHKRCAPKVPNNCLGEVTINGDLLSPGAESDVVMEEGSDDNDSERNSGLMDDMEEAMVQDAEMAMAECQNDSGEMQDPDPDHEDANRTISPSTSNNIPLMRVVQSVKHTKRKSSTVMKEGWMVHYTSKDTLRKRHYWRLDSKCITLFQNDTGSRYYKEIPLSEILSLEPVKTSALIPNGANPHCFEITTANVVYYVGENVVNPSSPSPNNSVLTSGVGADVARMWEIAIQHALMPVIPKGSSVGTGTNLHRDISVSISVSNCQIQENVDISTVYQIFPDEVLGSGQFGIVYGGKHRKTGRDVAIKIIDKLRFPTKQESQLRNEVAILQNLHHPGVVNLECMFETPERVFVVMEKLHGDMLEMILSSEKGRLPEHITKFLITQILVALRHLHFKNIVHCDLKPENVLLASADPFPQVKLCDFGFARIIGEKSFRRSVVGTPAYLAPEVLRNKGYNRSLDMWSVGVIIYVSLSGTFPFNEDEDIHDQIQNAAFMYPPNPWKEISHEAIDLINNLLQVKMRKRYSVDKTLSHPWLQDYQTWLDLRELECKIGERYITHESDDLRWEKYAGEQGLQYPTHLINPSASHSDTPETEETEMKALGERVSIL
Structure (SMILES),Activity [1],Activity [2],Activity [3],Activity [4],Activity [5],Activity [6],Activity [7],Activity [8],Activity [9],Activity [10]
Nc1ccccc1Nc1ccc2c(c1)CCc1ccccc1C2=O,77%,77%,96%,0.2%,91%,96%,80%,82%,85%,91%
O=C1c2ccc(Nc3ccc(F)cc3F)cc2CCc2ccc(OC[C@H](O)CO)cc21 [Skepinone-L],91%,93%,100%,0.2%,90%,90%,95%,100%,96%,100%
